The nature of this series: TIMS collisional cross section (CCS, N2) of the lipid ion; higher = larger ion cross section. As to conditions: ionization mode: positive, one isomer drawn.

± gives the standard deviation of the averaged measurements.

`CCCCC/C=C\C/C=C\CCCCCCCC(=O)OC[C@@H](COC(=O)CCCCCCCCCCCCCCC)OC(=O)CCCCCCC/C=C\CCCCCC` [TG 16:0_16:1_18:2] (ion (formula + adduct): [C53H96O6+NH4] 1+): the “TIMS collisional cross section” value runs as follows: (sample type: HeLa) 314.4 Å²; (sample type: Liver) 313.45 ± 0.55 Å²; (sample type: plasma) 313.6 ± 0.44 Å².
`CCCCCC/C=C\CCCCCCCC(=O)O[C@@H](COC(=O)CCCCCCC/C=C\CCCCCCCC)COC(=O)CCCCCCCCCCCCC` [TG 14:0_16:1_18:1] (ion (formula + adduct): [C51H94O6+NH4] 1+): the “TIMS collisional cross section” value is, setting by setting: (sample type: HeLa) 309.3 Å²; (sample type: Liver) 310.3 Å²; (sample type: plasma) 309.45 ± 0.071 Å².
As to `CCCCCCCCCCCCCCCCCC(=O)OC[C@H](COP(=O)(O)OCCN)OC(=O)CCCCCCCCCCCCCCC` [PE 18:0@_16:0] (ion (formula + adduct): [C39H78NO8P+H] 1+), the “TIMS collisional cross section” value (sample type: HeLa) came to 280.3 Å².
Take `CCCCC/C=C\C/C=C\C/C=C\C/C=C\CCCC(=O)O[C@H](COC(=O)CCCCCCCCCCCCCCCCC)COP(=O)(O)OCCN` [PE 18:0_20:4@] (ion (formula + adduct): [C43H78NO8P+H] 1+): the “TIMS collisional cross section” value is, setting by setting: (sample type: HeLa) 284.1 Å²; (sample type: Liver) 283.9 ± 0.37 Å².
Turning to `CC/C=C\C/C=C\C/C=C\C/C=C\C/C=C\CCCC(=O)OC[C@@H](COC(=O)CCCCCCCCCCCCC)OC(=O)CCCCCCC/C=C\CCCCCC` [TG 14:0_16:1_20:5] (ion (formula + adduct): [C53H90O6+NH4] 1+), the “TIMS collisional cross section” value (sample type: HeLa) was 310.6 Å².
Take `CCCCC/C=C\C/C=C\C/C=C\CCCCC(=O)OC[C@@H](COC(=O)CCCCCCCCCCCCCC)OC(=O)CCCCCCC/C=C\C/C=C\CCCCC` [TG 15:0_18:2_18:3] (ion (formula + adduct): [C54H94O6+NH4] 1+): the “TIMS collisional cross section” value runs as follows: (sample type: Liver) 312.7 Å²; (sample type: plasma) 312.8 Å².
The corresponding values for `CCCCCCCC/C=C\CCCCCCCC(=O)OC[C@H](COC(=O)CCCCCCCCCCCCCCCCCCCCC)OC(=O)CCCCCCC/C=C\CCCCCCCC` [TG 18:1_18:1_22:0] (ion (formula + adduct): [C61H114O6+NH4] 1+) are 339.7 Å² and 339.3 Å².
Take `CCCC/C=C\CCCCCCCC(=O)OC[C@@H](COC(=O)CCCCCCCCCCC)OC(=O)CCCCCCCCCCC` [TG 12:0_12:0_14:1] (ion (formula + adduct): [C41H76O6+NH4] 1+): where the note is “sample type: plasma”, the “TIMS collisional cross section” value came to 278.9 Å².
As for `CC/C=C\C/C=C\C/C=C\C/C=C\C/C=C\CCCC(=O)O[C@H](COC(=O)CCCCCCCCC/C=C\CCCCCC)COP(=O)([O-])OCC[N+](C)(C)C` [PC 18:1@_20:5] (ion (formula + adduct): [C46H80NO8P+H] 1+), the “TIMS collisional cross section” value by setting is: (sample type: HeLa) 290.2 Å²; (sample type: Liver) 290.9 Å².
Turning to `CCCCCCCCCCCCCCC(=O)O[C@H](COC(=O)CCCCCCCCCCCCC)COP(=O)([O-])OCC[N+](C)(C)C` [PC 14:0_15:0] (ion (formula + adduct): [C37H74NO8P+H] 1+), the “TIMS collisional cross section” value (sample type: HeLa) is given as 276.3 Å².
Still for that read-out and setting: the same measure for `CCCCCCCCCCCCCCCC(=O)O[C@H](COC(=O)CCCCCCCCCCCCC)COP(=O)([O-])OCC[N+](C)(C)C` [PC 14:0@_16:0] (ion (formula + adduct): [C38H76NO8P+H] 1+): 279.2 Å²; for `CCCCC/C=C\CCCCCCCC(=O)OC[C@H](COC(=O)CCCCCCC/C=C\CCCCCC)OC(=O)CCCCCCC/C=C\CCCCCC` [TG 15:1_16:1_16:1] (ion (formula + adduct): [C50H90O6+NH4] 1+): 305 Å².
Consider `CCCCC/C=C\C/C=C\CCCCCCCC(=O)O[C@H](COC(=O)CCCCCCCCCCCCCCCC)COP(=O)([O-])OCC[N+](C)(C)C` [PC 17:0@_18:2] (ion (formula + adduct): [C43H82NO8P+H] 1+), for which, under “sample type: Liver”, the “TIMS collisional cross section” value came out at 288.1 Å².
As for `CC/C=C\C/C=C\C/C=C\C/C=C\C/C=C\CCCC(=O)O[C@H](COC(=O)CCCCCCCCCCCCCC)COP(=O)([O-])OCC[N+](C)(C)C` [PC 15:0@_20:5] (ion (formula + adduct): [C43H76NO8P+H] 1+), for the setting “sample type: HeLa”, the “TIMS collisional cross section” value was 282.3 Å².
With `CC(C)C(=O)C[C@](C)(O)[C@H]1CC[C@H]2[C@@H]3C[C@H](O)[C@H]4C[C@@H](O)CC[C@]4(C)C3=CC[C@@]21C` [24-northornasterol A] (ion (formula + adduct): [C26H42O4+H] 1+), the “TIMS collisional cross section” value (sample type: plasma) stood at 207.8 Å².
As for `CC/C=C\C/C=C\C/C=C\C/C=C\C/C=C\CCCCCC(=O)OC[C@@H](COC(=O)CCCCCCCCCCCCC)OC(=O)CCCCCCCCCCCCCCC` [TG 14:0_16:0_22:5] (ion (formula + adduct): [C55H96O6+NH4] 1+), for the setting “sample type: HeLa”, the “TIMS collisional cross section” value stood at 318 Å².
As to `CCCCCCCC/C=C\CCCCCCCC(=O)OC[C@@H](COC(=O)CCCCCCCCCCCCCCCC)OC(=O)CCCCCCCCCCCCCCCCC` [TG 17:0_18:0_18:1] (ion (formula + adduct): [C56H106O6+NH4] 1+), the “TIMS collisional cross section” value was found to be 327.3 Å² (sample type: HeLa), 327.7 Å² (sample type: Liver) and 327.4 Å² (sample type: plasma).
For `CC/C=C\C/C=C\C/C=C\C/C=C\C/C=C\C/C=C\CCC(=O)O[C@H](COCCCCCCCCCCCCCCCC)COP(=O)(O)OCCN` [PE O- 16:0@_22:6] (ion (formula + adduct): [C43H76NO7P+H] 1+), the “TIMS collisional cross section” value (sample type: HeLa) was found to be 279.6 Å².
`CCCCCCCC/C=C\C/C=C\CCCCC(=O)O[C@H](COC(=O)CCCCCCC/C=C\CCCCCCCC)COP(=O)([O-])OCC[N+](C)(C)C` [PC 18:1_18:2] (ion (formula + adduct): [C44H82NO8P+H] 1+): the “TIMS collisional cross section” value (sample type: plasma) is given as 289.8 Å².
As for `CCCCCCCCCCCCCCCC(=O)OCC(CO)OC(=O)CCCCCCCCCCCCCCC` (configuration not stated) [DG 16:0_16:0_0:0] (ion (formula + adduct): [C35H68O5+NH4] 1+), the “TIMS collisional cross section” value is, setting by setting: (sample type: HeLa) 259 Å²; (sample type: Liver) 258.8 Å²; (sample type: plasma) 259 ± 0.42 Å².
On to `CCCCCC/C=C\CCCCCCCC(=O)OC[C@H](COP(=O)([O-])OCC[N+](C)(C)C)OC(=O)CCCCCCC/C=C\CCCCCCC` [PC 16:1_17:1] (ion (formula + adduct): [C41H78NO8P+H] 1+), for which, under “sample type: HeLa”, the “TIMS collisional cross section” value came out at 281.9 Å².
With `CC/C=C\C/C=C\C/C=C\C/C=C\C/C=C\C/C=C\CCC(=O)O[C@H](CO/C=C\CCCCCCCCCCCCCC)COP(=O)(O)OCCN` [PE P- 16:0@_22:6] (ion (formula + adduct): [C43H74NO7P+H] 1+), the “TIMS collisional cross section” value is 277.3 Å² (sample type: HeLa) and 277.4 Å² (sample type: plasma).
In the case of `CCCCC/C=C\C/C=C\C/C=C\C/C=C\CCCCCC(=O)OC[C@@H](COC(=O)CCCCCCC/C=C\CCCCCCCC)OC(=O)CCCCCCC/C=C\CCCCCCCC` [TG 18:1_18:1_22:4] (ion (formula + adduct): [C61H106O6+NH4] 1+), the “TIMS collisional cross section” value is, setting by setting: (sample type: Liver) 334.9 Å²; (sample type: plasma) 333.8 Å².

The record behind these values is the supplement of paper PMC6965134.
